The subject of one series is insulin receptor kinase. To be noted: literature, cited from earlier work.
In series [1] the target is T1, human insulin receptor kinase (Homo sapiens, UniProt P06213).
T1 construct: from tissue; host or cells: human placenta (Triton X-100 solubilized membranes; wheat germ agglutinin and insulin-Sepharose chromatography)
Kind of series: Kinase assay: phosphorylation of exogenous src-related peptide by purified insulin receptor. The series is classed as biochemical. To be noted: for activation of the insulin receptor kinase over the control: 1 μM basic protein or polyamine, preincubated 25° C. 1 hour, FIG. 1; for reactivation of receptor preparations that lost kinase activity or insulin dependency: aged preparations stored at -70° C.; for concentrations at which kinase activity is stimulated: dose response. The method, then: The substrate used is a synthetic peptide (src-related peptide) which resembles the amino acid sequence around the site of phosphorylation of the tyrosine residue in the Rous sarcoma virus transforming protein, pp60^src, with the sequence ([…], Casnellie, J. E., et al., Proc. Natl. Acad. Sci. USA 79:282 (1982).
The phosphorylation assays were carried out at 25° C. for 40 minutes in 30 ul of 50 mM Tris-HCl buffer (pH 7.4) containing 1 mM of the src-related peptide, 2 mM MnCl2, 15 mM MgCl2, 0.1% Triton X-100, and 40 μM [γ-^32 ]ATP (12,000 cpm/pmole). The reaction was terminated by adding 50 μl of 5% trichloroacetic acid (TCA) and 20 μl of bovine serum albumin (BSA) (10 mg/ml), the resulting solution was then incubated at 0° C. for 30 minutes, and the proteins were precipitated by centrifugation. Aliquots (35 μl) of the resulting supernatant were spotted on phosphocellulose paper (Whatman, P-81). The papers were extensively washed in 75 mM phosphoric acid. Duplicates of the papers were prepared from each reaction mixture and ^32 P incorporated into the src-related peptide was counted using a liquid scintillation counter.

In series [2] the test system is β subunit of the insulin receptor and calmodulin. To be noted: rat hepatocyte insulin receptor preparations, absence of insulin; literature; cited from earlier work.
In series [3] the target is T2, β and α subunits of the insulin receptor (Homo sapiens, UniProt P06213).
T2 construct: from tissue; host or cells: human placenta (Triton X-100 solubilized membranes; wheat germ agglutinin and insulin-Sepharose chromatography)
The series can be described thus: Phosphoamino acid analysis of phosphorylated β and α subunits by paper electrophoresis. The class given is biochemical. The method, then: Chem 254:1206 (1984), and hydrolyzing the peptides in 2N HCl for 2 hours at 110° C. The materials were then analyzed by paper electrophoresis (pH 3.5, 2000 V, 1 hour) and autoradiography.
Lanes 1-4 of FIG. 4B contain amounts of hydrolysates equal to 50% of the starting materials from the FIG. 4A gel. […] Other radioactive samples were electrophoresed together with these three phosphoamino acids. Ninhydrin spots for those are not shown. X indicates the origin of the samples.

In series [4] the target is T3, insulin receptor β subunit (Homo sapiens, UniProt P06213).
T3 construct: from tissue; host or cells: human placenta (Triton X-100 solubilized membranes; wheat germ agglutinin and insulin-Sepharose chromatography)
Kind of series: Phosphorylation (autophosphorylation) of insulin receptor subunits, SDS-PAGE and autoradiography. The series is classed as biochemical. The method, then: The β subunit of the purified receptor was phosphorylated in the same manner as described above for the exogenous substrate phosphorylation. The reaction was terminated by adding 3-times concentrated Laemmli's sample buffer followed by boiling for 5 minutes. SDS-polyacrylamide gel electrophoresis was then performed under reducing conditions as described by Laemmli, U. K., Nature 227:680 (1970). The gels were stained with silver, dried, and autoradiographed.
After the kinase reaction was terminated by adding TCA and BSA as described in the above procedures, the proteins containing the insulin receptor were precipitated by centrifugation. The precipitated proteins were then subjected to SDS polyacrylamide gel electrophoresis (7.5% gel) under reducing conditions. The gels were stained with silver, dried, and autoradiographed for 30 hours using a Kodak XAR-5 film and an intensifying screen.
The insulin receptor was then phosphorylated according to the procedures described above. After the phosphorylation, the receptors were analyzed by SDS polyacrylamide gel electrophoresis (10% gel) under non-reducing conditions. The gel was dried and autoradiographed for 45 minutes at -70° C. by exposing the gel to a Kodak XAR-5 film with an intensifying screen.

Like-named read-outs stand apart in the source and are kept apart here.

insulin: the “activation of the insulin receptor kinase” value with insulin receptor kinase is “activate the insulin receptor kinase”.

For the molecule protamine sulfate, the “stimulatory effect on kinase activity relative to basal” value in series [1] (10 μM, FIG. 2) is recorded as “approximately two-fold”. The “stimulation of phosphorylation of the β subunit of the insulin receptor (and calmodulin)” value (shortened to “stimulation … (and calmodulin)”) in series [2] is “appeared to stimulate the phosphorylation of both the β subunit of the insulin receptor and calmodulin”.

Consider `O[C@H](CS)[C@H](O)CS` (racemic) [DTT, dithiothreitol, reference compound], for which the “Kinase activity” value was determined as 0.059 pmol/min in series [1] (preincubation with 0.1 mM DTT) and 0.083 pmol/min in series [1] (preincubation with 0.5 mM DTT). In series [1] (read-out: Kinase Activity -fold, preincubation with 0.1 mM DTT, relative to no addition), the fold induction at 100 µM was found to be 9.8. Also, the fold induction at 500 µM in series [1] (read-out: Kinase Activity -fold, preincubation with 0.5 mM DTT, relative to no addition) amounted to 13.8. Moreover, the entries for the “activation of the insulin receptor kinase” value in the series on insulin receptor kinase and with insulin receptor kinase (listed as dithiothreitol (DTT)) were “activate the insulin receptor kinase” and “activates the insulin receptor kinase”, respectively.

With poly L-arginine, the “effect on kinase activity in dose response” value in series [1] (all concentrations examined, FIG. 2) is recorded as “inhibited the kinase activity of the receptor at any of the concentrations examined”. The “stimulation … (and calmodulin)” value in series [2] is reported as “effective to stimulate the phosphorylation of the β subunit of the insulin receptor”.

On to `[Na+].[Na+].[Na+].[O]=[V]([O-])([O-])[O-]` [vanadate, sodium orthovanadate], for which the “activation of the insulin receptor kinase” value with insulin receptor kinase is recorded as “activate the insulin receptor kinase”.

Regarding concanavalin A, the “activation of the insulin receptor kinase” value in the series on insulin receptor kinase is given as “activate the insulin receptor kinase”.

Take poly L-lysine: in series [1] (0.24 μM poly L-lysine, varying src-related peptide, FIGS. 6B, 6C), the “kinetic analysis (Vmax, KM), Lineweaver-Burk plots” value was “increasing Vmax without significantly changing KM”. Further, in series [1], the “activation of the insulin receptor kinase over the control” value was “approximately 5 fold”. Further, in series [1] (100 μM poly L-lysine, FIG. 3A), the “stimulative effect on kinase activity” value is reported as “can no longer be seen”. The “reactivation of receptor preparations that lost kinase activity or insulin dependency” value in series [1] was “can activate certain old insulin receptor preparations”; in series [1] (listed as Poly L-lysine), “able to restore the kinase activity of insulin receptor preparation that have lost some, but not all, kinase activity”. The “concentrations at which kinase activity is stimulated” value in series [1] (FIG. 2) fell in the range of 0.1 to 1.0 µM. Moreover, the “kinase activation compared with activation by insulin” value in series [1] (optimum poly L-lysine concentrations vs 1 μM insulin, FIG. 3A) was “much greater than the kinase activation by insulin”. The “Kinase activity” value in series [1] (preincubation with 0.24 μM PLL) is recorded as 0.234 pmol/min; in series [1] (receptor preparation A, stored 36 Mo. at -70° C., 1 μM insulin or 0.24 μM poly L-lysine), 0.002 pmol/min; in series [1] (receptor preparation B, stored 28 Mo. at -70° C., 1 μM insulin or 0.24 μM poly L-lysine) it was 0.174 pmol/min; in series [1] (receptor preparation C, stored 15 Mo. at -70° C., 1 μM insulin or 0.24 μM poly L-lysine) it was 0.229 pmol/min; in series [1] (receptor preparation D, stored 3 Mo. at -70° C., 1 μM insulin or 0.24 μM poly L-lysine), 2.30 pmol/min; in series [1] (receptor preparation E, stored <3 Days, 1 μM insulin or 0.24 μM poly L-lysine), 1.13 pmol/min. The “Kinase Activity -fold” value in series [1] (preincubation with 0.24 μM PLL, relative to no addition) is given as 39 fold. Further, the “kinase activity after poly L-lysine treatment” value in series [1] (receptor preparations older than 36 months (data not shown)) was “no kinase activity”. Further, the “β subunit phosphorylation, radioactivity of hydrolysate” value is given as 1700 cpm in series [3] (0.25 μM poly L-lysine, 20% of the original material, FIG. 4B lane 6) and 4400 cpm in series [3] (1 μM insulin or 0.25 μM poly L-lysine, hydrolysate equal to 50% of starting material, FIG. 4B). In addition, the “α subunit phosphorylation, radioactivity of hydrolysate” value in series [3] (0.25 μM poly L-lysine, hydrolysate equal to 50% of starting material, FIG. 4B lane 4) is 1000 cpm. The “phosphoamino acid composition of phosphorylated β and α subunits” value in series [3] (FIG. 4B) was “tyrosine was found to be a major amino acid whose phosphorylation was stimulated”. Moreover, the “phosphorylation of insulin receptor subunits” value in series [4] (0.25 μM poly L-lysine, non-reducing SDS-PAGE, FIG. 4A lane 3) was “stimulates phosphorylation of α and β1 subunits in addition to the β subunit”. Besides, the “stimulation of β subunit autophosphorylation compared with insulin” value in series [4] (0.001-10 μM poly L-lysine, with or without 1 μM insulin, FIG. 3B) is recorded as “greater than that of insulin”. Moreover, the “stimulation … (and calmodulin)” value in series [2] was “appeared to stimulate the phosphorylation of both the β subunit of the insulin receptor and calmodulin”.

As for poly L-ornithine, the “activation of the insulin receptor kinase over the control” value in series [1] is given as “approximately 4 fold”. Further, in series [1] (FIG. 2), the “concentrations at which kinase activity is stimulated” value lay within 0.1 to 1.0 µM. The “stimulation … (and calmodulin)” value in series [2] is reported as “effective to stimulate the phosphorylation of the β subunit of the insulin receptor”.

In the case of `OO` [H2 O2, hydrogen peroxide], the “activation of the insulin receptor kinase” value in the series on insulin receptor kinase is given as “activate the insulin receptor kinase”.

As for histone Hf2b [reference compound], the “stimulation … (and calmodulin)” value in series [2] is “appeared to stimulate the phosphorylation of both the β subunit of the insulin receptor and calmodulin”.
